The source made the active and inactive calls. The rule behind the calls is not given here.

One data set addresses Cannabinoid receptor 1 (Homo sapiens, UniProt P21554). The experiment in a line: Binding affinity to CB1 receptor (unknown origin).
The next data set deals with Cannabinoid receptor 2 (Homo sapiens, UniProt P34972). Put plainly: Binding affinity to CB2 receptor (unknown origin).
A short description of data set [1]: Ratio of AUC in brain to plasma in BALB/c mouse at 10 mg/kg, po measured for 4 hrs by MS-HPLC analysis. Format: ADME, organism-based. The conditions noted are these: brain and plasma.
In data set [2] the target is T1, Pyruvate kinase PKM (Homo sapiens, UniProt P14618). Put plainly: Binding affinity to PKM2 (unknown origin) assessed as dissociation constant by fluorescence titration based spectrophotometric analysis.
Target sequence in this assay (P14618 whole entry): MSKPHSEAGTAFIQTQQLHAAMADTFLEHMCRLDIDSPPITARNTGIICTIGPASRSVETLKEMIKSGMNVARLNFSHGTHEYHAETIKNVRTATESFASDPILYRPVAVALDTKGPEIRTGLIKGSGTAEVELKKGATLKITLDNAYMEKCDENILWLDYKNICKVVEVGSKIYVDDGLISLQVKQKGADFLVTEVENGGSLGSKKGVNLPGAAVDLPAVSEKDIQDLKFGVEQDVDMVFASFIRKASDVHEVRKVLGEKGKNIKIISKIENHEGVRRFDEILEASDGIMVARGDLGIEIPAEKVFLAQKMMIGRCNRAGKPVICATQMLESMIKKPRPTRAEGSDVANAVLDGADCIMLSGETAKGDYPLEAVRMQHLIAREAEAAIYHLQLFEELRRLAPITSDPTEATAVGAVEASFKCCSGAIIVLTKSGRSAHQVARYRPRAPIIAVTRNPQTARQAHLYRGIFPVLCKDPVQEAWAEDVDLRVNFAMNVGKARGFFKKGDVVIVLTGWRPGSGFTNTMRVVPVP
Data set [3] addresses T1, Pyruvate kinase PKM. The experiment in a line: Binding affinity to PKM2 (unknown origin) assessed as decrease in thermal stabilization of protein by measuring change in melting temperature at 100 uM incubated for 2 hrs at room temperature followed by heating at varying temperatures for 5 mins and later cooled at 25 degC for 3 mins by CETSA analysis. The conditions noted are these: filed as modulator, time 128.0 min.
Target sequence in this assay (P14618 2-531 limits assumed): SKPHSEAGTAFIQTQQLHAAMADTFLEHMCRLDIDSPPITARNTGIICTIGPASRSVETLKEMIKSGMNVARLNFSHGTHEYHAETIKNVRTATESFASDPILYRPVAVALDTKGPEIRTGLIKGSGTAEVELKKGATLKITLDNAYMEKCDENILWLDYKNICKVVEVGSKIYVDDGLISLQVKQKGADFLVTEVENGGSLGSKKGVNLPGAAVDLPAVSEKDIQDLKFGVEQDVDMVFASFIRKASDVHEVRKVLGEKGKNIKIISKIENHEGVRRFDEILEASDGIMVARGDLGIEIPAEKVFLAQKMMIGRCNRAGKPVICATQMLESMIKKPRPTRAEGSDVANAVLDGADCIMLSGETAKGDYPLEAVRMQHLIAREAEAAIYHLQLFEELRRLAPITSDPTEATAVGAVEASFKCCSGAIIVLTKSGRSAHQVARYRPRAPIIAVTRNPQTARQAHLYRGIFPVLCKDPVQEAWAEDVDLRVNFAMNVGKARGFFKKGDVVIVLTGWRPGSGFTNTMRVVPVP

The test system of data set [4] is BV-2. The experiment in a line: Inhibition of LPS-inuced nuclear translocation of PKM2 in mouse BV-2 cells assessed as decrease in PKM2 content in nucleus at 5 uM incubated for 6 hrs in presence of LPS by western blot analysis. Format: subcellular. The conditions noted are these: filed as modulator. For orientation: In western blotting, separated proteins are transferred to a membrane and probed.

Data set [5] is described as follows: Acute toxicity against BALB/c mouse assessed as changes in body weight at 20 mg/kg, ip measured for 14 days. It counts as organism-based. The conditions noted are these: in vivo, 336 h, time 14 day.
In data set [6] the test system is BV-2. Put plainly: Anti-neuroinflammatory activity in mouse BV-2 cells assessed as inhibition of LPS-induced IL-1 beta mRNA expression at 1 uM by qRT-PCR analysis. Format: functional, cell-based.
The test system of data set [7] is BV-2. The experiment in a line: Anti-neuroinflammatory activity in mouse BV-2 cells assessed as inhibition of LPS-induced IL-1 beta mRNA expression at 10 uM by qRT-PCR analysis. It counts as functional, cell-based. (In general: In qPCR the cycle at which signal appears reflects the starting amount.)
Data set [8] is described as follows: Mean residence time in BALB/c mouse plasma at 10 mg/kg, po measured for 4 hrs by MS-HPLC analysis. Format: ADME, organism-based.
Data set [9] in a line: Half life in BALB/c mouse plasma at 10 mg/kg, po measured for 4 hrs by MS-HPLC analysis. Format: ADME, organism-based.
Data set [10] can be described thus: Mean residence time in BALB/c mouse brain at 10 mg/kg, po measured for 4 hrs by MS-HPLC analysis. Format: ADME, organism-based.
Data set [11] can be described thus: AUC in BALB/c mouse brain at 10 mg/kg, po measured for 4 hrs by MS-HPLC analysis. It counts as ADME, organism-based. Particulars: in vivo.
A short description of data set [12]: Cmax in BALB/c mouse plasma at 10 mg/kg, po measured for 4 hrs by MS-HPLC analysis. Format: ADME, organism-based. The conditions noted are these: in vivo.
A short description of data set [13]: Ratio of Cmax in brain to plasma in BALB/c mouse at 10 mg/kg, po measured for 4 hrs by MS-HPLC analysis. Format: ADME, organism-based. Particulars: brain and plasma.
Data set [14] concerns BV-2. Put plainly: Anti-neuroinflammatory activity in mouse BV-2 cells assessed as inhibition of LPS-induced microglial activation by measuring inhibition of morphological changes at 5 uM incubated for 24 hrs in presence of LPS by inverted microscopic analysis. Format: functional, cell-based.
Data set [15] concerns Mus musculus. The experiment in a line: Anti-neuroinflammatory activity in BALB/c mouse assessed as decrease in morphine-induced IL-1 beta mRNA expression in medial prefrontal cortex at 0.2 mg/kg administration started on day 3 after 2 days of chamber habituation followed by treatment with morphine on days 4,6 and 8 and with vehicle on days 5,7 and 9 and measured on day 10 by qRT-PCR analysis. Format: functional, organism-based. Particulars: time 8.0 day.

Data set [16] is described as follows: Cmax in BALB/c mouse brain at 10 mg/kg, po measured for 4 hrs by MS-HPLC analysis. It counts as ADME, organism-based. The conditions noted are these: in vivo.
The test system of data set [17] is BV-2. Put plainly: Anti-neuroinflammatory activity in mouse BV-2 cells assessed as inhibition of LPS-induced NO production incubated for 24 hrs in presence of LPS by fluorescence-based analysis. It counts as functional, cell-based. The conditions noted are these: for IC50: BV-2, 24 h.
For data set [18], the system named is Mus musculus. Put plainly: Anti-morphine addiction activity against BALB/c mouse assessed as decrease in preference for morphine-paired chamber at 0.2 mg/kg administration started on day 3 after 2 days of chamber habituation followed by treatment with morphine on days 4,6 and 8 and with vehicle on days 5,7 and 9 and measured on day 10 by conditional place preference test. It counts as functional, organism-based. Particulars: time 8.0 day.

Data set [19] in a line: Half life in BALB/c mouse brain at 10 mg/kg, po measured for 4 hrs by MS-HPLC analysis. It counts as ADME, organism-based.
Data set [20] can be described thus: Acute toxicity against BALB/c mouse assessed as mortality at 20 mg/kg, ip measured after 2 hrs. Format: organism-based. The conditions noted are these: in vivo.
Data set [21] is described as follows: Tmax in BALB/c mouse plasma at 10 mg/kg, po measured for 4 hrs by MS-HPLC analysis. It counts as ADME, organism-based.
The species named for the next data set is Homo sapiens. The experiment in a line: Binding affinity to PKM2 F26A mutant (unknown origin) at 10 to 50 uM by fluorescence titration based spectrophotometric analysis. The conditions noted are these: dose 10-50 µM.
Data set [22] is described as follows: AUC in BALB/c mouse plasma at 10 mg/kg, po measured for 4 hrs by MS-HPLC analysis. Format: ADME, organism-based. Particulars: in vivo.
Data set [23] in a line: Tmax in BALB/c mouse brain at 10 mg/kg, po measured for 4 hrs by MS-HPLC analysis. It counts as ADME, organism-based.

Cannabinoid receptor 2, sequence (P34972 whole entry): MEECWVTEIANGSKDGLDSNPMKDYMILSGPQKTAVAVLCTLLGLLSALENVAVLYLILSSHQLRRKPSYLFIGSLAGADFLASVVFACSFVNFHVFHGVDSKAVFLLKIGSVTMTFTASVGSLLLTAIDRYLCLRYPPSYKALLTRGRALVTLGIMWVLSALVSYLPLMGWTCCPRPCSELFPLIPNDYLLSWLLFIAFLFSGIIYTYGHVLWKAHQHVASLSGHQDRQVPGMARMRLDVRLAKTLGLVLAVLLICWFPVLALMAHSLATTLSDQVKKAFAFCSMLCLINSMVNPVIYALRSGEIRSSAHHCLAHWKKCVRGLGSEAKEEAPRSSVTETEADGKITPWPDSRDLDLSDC
Cannabinoid receptor 1, sequence (P21554 whole entry): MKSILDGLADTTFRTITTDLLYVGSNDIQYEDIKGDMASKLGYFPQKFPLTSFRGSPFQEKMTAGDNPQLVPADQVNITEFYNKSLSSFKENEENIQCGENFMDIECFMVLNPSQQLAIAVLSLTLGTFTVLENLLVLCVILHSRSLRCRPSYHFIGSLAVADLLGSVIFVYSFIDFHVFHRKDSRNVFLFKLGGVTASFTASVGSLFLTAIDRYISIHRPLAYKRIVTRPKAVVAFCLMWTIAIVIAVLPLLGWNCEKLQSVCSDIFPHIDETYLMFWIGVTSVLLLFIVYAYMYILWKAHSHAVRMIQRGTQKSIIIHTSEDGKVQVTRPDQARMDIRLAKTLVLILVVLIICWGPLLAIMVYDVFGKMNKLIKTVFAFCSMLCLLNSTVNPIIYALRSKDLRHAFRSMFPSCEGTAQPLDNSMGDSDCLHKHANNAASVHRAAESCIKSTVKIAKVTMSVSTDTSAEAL

Consider `CCCCCCC(C)(C)c1cc(O)c2c(c1)OC(C)(C)c1ccc(C)c(CO)c1-2`, for which the figures for the Ki at Cannabinoid receptor 1 and at Cannabinoid receptor 2 were 0.066 nM and 96 nM, respectively.

`C=C(C)[C@@H]1CCC(C)=C[C@H]1c1c(O)cc([C@H](C)n2nccn2)cc1O`: the Kp at 4 h is more than 2 in data set [1] and 3 in data set [13]. For the same compound, the Kd at Pyruvate kinase PKM [2] was determined as 2200 nM. In addition, on Pyruvate kinase PKM [3], the shift in melting temperature (ΔTm) came out at 4.1 °C. Further, the inhibition entry in the data set on BV-2 [4] was “Active”. For the same compound, the values for the Activity result (in [5]; in the data set with BV-2 [17]; in data set [20]) were “Non-toxic”, “Dose-dependent-effect” and “Non-toxic”, respectively. For the same compound, the outcome in the data set with BV-2 [6], in the data set with BV-2 [7], in the data set with BV-2 [14], in the data set with Mus musculus [15] and with Mus musculus [18] was Active. Besides, the values for the MRT in data set [8] and in [10] were 72 min and 102 min, respectively. Further, the half-life in [9] was 42 min; in data set [19], 48 min. Further, the AUC came to 137.7 ng·h/g in [11] and 75.5 ng·h/g in data set [22]. Besides, the Cmax in data set [12] amounted to 46.6 ng/mg; in data set [16], 130 ng/mg. The IC50 with BV-2 [17] stood at 3300 nM. For the same compound, the Tmax stood at 30 min in data set [21] and 18 min in data set [23]. The outcome in the data set filed under Homo sapiens was inactive.

On to `C=C(C)[C@H]1CCC(C)=C[C@@H]1c1c(O)cc([C@@H](C)n2nccn2)cc1O`, for which the IC50 in the data set on BV-2 [17] is more than 30000 nM.

In the case of `C=C(C)[C@@H]1CCC(C)=C[C@H]1c1c(O)cc([C@@H](C)n2nccn2)cc1O`, the ΔTm at Pyruvate kinase PKM [3] was 1.6 °C. Moreover, the inhibition entry with BV-2 [4] was “Active; Weak Inhibitory Effect Observed”. Moreover, the result in the data set on BV-2 [7] was Active. For the same compound, the figures for the Activity result with BV-2 [14] and in the data set on Mus musculus [15] were “Active; Lessened Effect Observed” and “Active; Minimal Effect Observed”, respectively. Further, the IC50 in the data set with BV-2 [17] turned out to be 13200 nM. In the data set with Mus musculus [18], the outcome was inactive.

On to `C=C(C)[C@H]1CCC(C)=C[C@@H]1c1c(O)cc([C@H](C)n2nccn2)cc1O`, for which the IC50 with BV-2 [17] is more than 30000 nM.

Broadly, the Ki is a measure of affinity in units of concentration, obtained from inhibition or displacement. The low end stands for tighter binding, the high end for weaker binding. Usually Kp stands for tissue or fluid exposure divided by exposure in the circulation. What is called Kd is the constant that tells how readily two partners part at equilibrium. For orientation: ΔTm means the change in melting temperature against a reference sample. Usually MRT stands for a mean duration of stay, worked out from the concentration-time curve. For orientation: half-life means the time in which the quantity being followed falls by half. Low readings indicate fast loss, high ones slow loss. The IC50 is the midpoint of a concentration-inhibition curve. Usually Tmax stands for the time from dosing to the highest level.

Source of the values: ChEMBL document CHEMBL6103563, “Chiral recognition of CIAC001 isomers in regulating pyruvate kinase M2 and mitigating neuroinflammation” (Eur J Med Chem, 2025).
